The text below walks through data of patent US9732063B2, “Kinase inhibitors” (RESPIVERT LIMITED, priority 2012, dated 2017).

For experiment [1], the system named is PBMCs. Nature of the experiment: LPS-induced TNFα/IL-8 release in PBMC cells. Conditions: Homo sapiens, read-out: IC50 Values for Inhibition of Cytokine Release PBMCs IL-8. The class given is cell-based. The procedure: Peripheral blood mononuclear cells (PBMCs) from healthy subjects are separated from whole blood using a density gradient (Lymphoprep, Axis-Shield Healthcare). The PBMCs are seeded in 96 well plates and treated with compounds at the desired concentration for 2 hours before addition of 1 ng/mL LPS (Escherichia Coli O111:B4 from Sigma Aldrich) for 24 hours under normal tissue culture conditions (37° C., 5% CO2). The supernatant is harvested for determination of IL-8 and TN Fa concentrations by sandwich ELISA (Duo-set, R&D systems) and read on the fluorescence microplate reader (Varioskan® Flash, ThermoFisher Scientific).

A further experiment concerns the target GSK3α (Homo sapiens (Human), UniProt P49840). Description: GSK 3α enzyme inhibition (Z-LYTE FRET, Method 2). The class given is biochemical. The procedure:
The enzyme inhibitory activities of compounds disclosed herein are determined by FRET using synthetic peptides labelled with both donor and acceptor fluorophores (Z-LYTE, Invitrogen Ltd., Paisley, UK).
The inhibitory activities of compounds of the invention against the GSK 3α enzyme isoform (Invitrogen), are evaluated by determining the level of activation/phosphorylation of the target peptide. The GSK3-α protein (500 ng/mL, 2.5 μL) is mixed with the test compound (2.5 μL at either 4 μg/mL, 0.4 μg/mL, 0.04 μg/mL, or 0.004 μg/mL) for 2 hr at RT. The FRET peptide (8 μM, 2.5 μL), which is a phosphorylation target for GSK3α, and ATP (40 μM, 2.5 μL) are then added to the enzyme/compound mixture and the resulting mixture incubated for 1 hr. Development reagent (protease, 5 μL) is added for 1 hr prior to detection in a fluorescence microplate reader (Varioskan® Flash, ThermoFisher Scientific).
In all cases, the site-specific protease cleaves non-phosphorylated peptide only and eliminates the FRET signal. Phosphorylation levels of each reaction are calculated using the ratio of coumarin emission (donor) over fluorescein emission (acceptor), for which high ratios indicate high phosphorylation and low ratios indicate low phosphorylation levels.

Experiment [2] deals with PBMCs. Description: IL-2 and IFN gamma release in CD3/CD28 stimulated PBMC cells. The class given is cell-based. To be noted: Homo sapiens. The procedure:
PBMCs from healthy subjects are separated from whole blood using a density gradient (Lymphoprep, Axis-Shield Healthcare). Cells are added to a 96 well plate pre-coated with a mixture of CD3/CD38 monoclonal antibodies (0.3 μg/mL eBioscience and 3 μg/mL BD Pharmingen respectively). Compound at the desired concentration is then added to the wells and the plate left for 3 days under normal tissue culture conditions. Supernatants are harvested and IL-2 and IFN gamma release determined by Sandwich ELISA (Duo-set, R&D System). The IC50 is determined from the dose response curve.

GSK3α, sequence (P49840 whole entry): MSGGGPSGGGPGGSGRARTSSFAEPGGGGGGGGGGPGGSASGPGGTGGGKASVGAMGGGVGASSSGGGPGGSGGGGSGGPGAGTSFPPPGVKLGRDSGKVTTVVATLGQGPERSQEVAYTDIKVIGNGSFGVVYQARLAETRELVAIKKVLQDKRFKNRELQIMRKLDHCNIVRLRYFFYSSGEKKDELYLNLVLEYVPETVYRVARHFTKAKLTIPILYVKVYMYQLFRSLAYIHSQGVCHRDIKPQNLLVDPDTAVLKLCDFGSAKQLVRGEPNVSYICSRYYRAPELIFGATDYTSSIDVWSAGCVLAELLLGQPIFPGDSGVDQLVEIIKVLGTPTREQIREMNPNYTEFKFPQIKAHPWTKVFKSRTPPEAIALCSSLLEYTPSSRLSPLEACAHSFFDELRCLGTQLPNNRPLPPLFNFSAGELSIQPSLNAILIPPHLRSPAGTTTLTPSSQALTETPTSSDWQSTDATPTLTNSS

`COCCOCCOCCOc1cccc(Nc2nccc(Oc3ccc(NC(=O)Nc4cc(C(C)(C)C)nn4-c4ccc(OC)nc4)c4ccccc34)n2)c1` [Example 4, 1-(3-(tert-Butyl)-1-(6-methoxypyridin-3-yl)-1H-pyrazol-5-yl)-3-(4-((2-((3-(2-(2-(2-methoxy-ethoxy)ethoxy)ethoxy)phenyl)amino)pyrimidin-4-yl)oxy)naphthalen-1-yl)urea]: the half-maximal inhibitory concentration (IC50) in the experiment with PBMCs [1] came out at 1.7 nM.

Take `COc1ccc(-n2nc(C(C)(C)C)cc2NC(=O)Nc2ccc(Oc3ccnc(Nc4cccc(OC(N)=O)c4)n3)c3ccccc23)cn1` [Example 5, 3-(4-((4-(3-(3-(tert-Butyl)-1-(6-methoxypyridin-3-yl)-1H-pyrazol-5-yl)ureido)naphthalen-1-yl)oxy)pyrimidin-2-yl)amino)phenyl carbamate]: the IC50 with PBMCs [1] stood at 1.9 nM; against GSK3α it was 306 nM.

On to `COc1ccc(-n2nc(C(C)(C)C)cc2NC(=O)Nc2ccc(Oc3ccnc(Nc4cccc(SCCO)c4)n3)c3ccccc23)cn1` [Example 6], for which the IC50 came out at 1.6 nM with PBMCs [1] and 501 nM on GSK3α.

Consider `COc1ccc(-n2nc(C(C)(C)C)cc2NC(=O)Nc2ccc(Oc3ccnc(Nc4cccc([S+]([O-])C5CC5)c4)n3)c3ccccc23)cn1` (centres unmarked) [Example 7, 1-(3-(tert-Butyl)-1-(6-methoxypyridin-3-yl)-1H-pyrazol-5-yl)-3-(4-((2-((3-(cyclopropyl-sulfinyl)phenyl)amino)pyrimidin-4-yl)oxy)naphthalen-1-yl)urea], for which the IC50 came to 0.9 nM in the experiment on PBMCs [1] and 125 nM at GSK3α.

For the compound `COc1ccc(-n2nc(C(C)(C)C)cc2NC(=O)Nc2ccc(Oc3ccnc(Nc4cccc(S(=O)(=O)C5CC5)c4)n3)c3ccccc23)cn1` [Example 8, 1-(3-(tert-Butyl)-1-(6-methoxypyridin-3-yl)-1H-pyrazol-5-yl)-3-(4-((2-((3-(cyclopropyl-sulfonyl)phenyl)amino)pyrimidin-4-yl)oxy)naphthalen-1-yl)urea], the figures for the IC50 in the experiment on PBMCs [1] and at GSK3α were 1 nM and 258 nM, respectively.

Consider `COc1cc(N=S(C)(C)=O)cc(Nc2nccc(Oc3ccc(NC(=O)Nc4cc(C(C)C)nn4-c4ccc(C)cc4)c4ccccc34)n2)c1` [Example 16, 3-(5-Methoxy((4-((4-(3-(3-isopropyl-1-(p-tolyl)-1H-pyrazol-5-yl)ureido)naphthalen-1-yl)-oxy)pyrimidin-2-yl)amino))phenyl-S,S-dimethyl-N-phenyl sulfoximine], for which the IC50 in the experiment with PBMCs [1] (LPS-stimulated PBMCs) is 1.7 nM.

As for `Cc1ccc(-n2nc(C(C)C)cc2NC(=O)Nc2ccc(Oc3ccnc(Nc4cccc(S(=O)(=O)C5CC5)c4)n3)c(Cl)c2Cl)cc1` [Example 24, 1-(2,3-Dichloro-4-((2-((3-(cyclopropylsulfonyl)phenyl)amino)pyrimidin-4-yl)oxy)phenyl)-3-(3-isopropyl-1-(p-tolyl)-1H-pyrazol-5-yl)urea], the IC50 stood at 3.8 nM in the experiment with PBMCs [1] and 117 nM at GSK3α.

On to `COc1cc(Nc2nccc(Oc3ccc(NC(=O)Nc4cc(C(C)C)nn4-c4ccc(C)cc4)c(F)c3F)n2)cc(OCCN2CCOCC2)c1` [Example 25, 1-(2,3-Difluoro-4-((2-((3-methoxy-5-(2-morpholinoethoxy)phenyl)amino)pyrimidin-4-yl)oxy)phenyl)-3-(3-isopropyl-1-(p-tolyl)-1H-pyrazol-5-yl)urea], for which the IC50 was 2 nM in the experiment with PBMCs [1] and 804 nM against GSK3α.

Take `COc1cc(N=S(C)(C)=O)cc(Nc2nccc(Oc3ccc(NC(=O)Nc4cc(C(C)C)nn4-c4ccc(C)cc4)c(Cl)c3Cl)n2)c1` [Example 26]: the IC50 turned out to be 3.9 nM in the experiment on PBMCs [1] and 426 nM at GSK3α.

In the case of `COCCOCCOCCOc1cc(Nc2nccc(Oc3ccc(NC(=O)Nc4cc(C(C)C)nn4-c4ccc(C)cc4)c4ncccc34)n2)cc(OC)c1` [Example 27, 1-(3-Isopropyl-1-(P-tolyl)-1H-pyrazol-5-yl)-3-(5-((2-((3-methoxy-5-(2-(2-(2-methoxy-ethoxy)ethoxy)ethoxy)phenyl)amino)pyrimidin-4-yl)oxy)quinolin-8-yl)urea], the IC50 in the experiment with PBMCs [1] is 24.8 nM; against GSK3α it was more than 10000 nM.

For the compound `COc1cc(Nc2nccc(Oc3ccc(NC(=O)Nc4cc(C(C)C)nn4-c4ccc(C)cc4)c4ncccc34)n2)cc(OCCN2CCOCC2)c1` [Example 28, 1-(3-Isopropyl-1-(P-tolyl)-1H-pyrazol-5-yl)-3-(5-((2-((3-methoxy-5-(2-morpholinoethoxy)-phenyl)amino)pyrimidin-4-yl)oxy)quinolin-8-yl)urea], the IC50 was 24 nM in the experiment with PBMCs [1] and more than 10000 nM against GSK3α.

With `COCCOCCOCCSc1cc(Nc2nccc(Oc3ccc(NC(=O)Nc4cc(C(C)C)nn4-c4ccc(C)cc4)c4ccccc34)n2)cc(OC)c1` [Example 31, 1-(3-Isopropyl-1-(P-tolyl)-1H-pyrazol-5-yl)-3-(4-((2-((3-methoxy-5-((2-(2-(2-methoxy-ethoxy)ethoxy)ethyl)thio)phenyl)amino)pyrimidin-4-yl)oxy)naphthalen-1-yl)urea], the IC50 in the experiment on PBMCs [1] is 4.4 nM; against GSK3α, more than 10000 nM.

`COCCOCCOCCOc1cc(Nc2nccc(Oc3ccc(NC(=O)Nc4cc(C(C)C)nn4-c4ccc(C)cc4)c4ccccc34)n2)cc(OC(F)(F)F)c1` [Example 33, 1-(3-Isopropyl-1-(p-tolyl)-1H-pyrazol-5-yl)-3-(4-((2-((3-(2-(2-(2-methoxyethoxyl)ethoxy)-ethoxy)-5-(trifluoromethoxy)phenyl)amino)pyrimidin-4-yl)oxy)naphthalen-1-yl)urea]: the IC50 was 8.7 nM in the experiment on PBMCs [1] and more than 10000 nM on GSK3α.

Take `COCCOCCOCCOc1cc(Nc2nccc(Oc3ccc(NC(=O)Nc4cc(C(C)C)nn4-c4ccc(C)cc4)c4ccccc34)n2)cc(C(F)(F)F)c1` [Example 34]: the figures for the IC50 with PBMCs [1] and on GSK3α were 12.2 nM and more than 10000 nM, respectively.

Take `COCCOCCOCCS(=O)(=O)c1cc(Nc2nccc(Oc3ccc(NC(=O)Nc4cc(C(C)C)nn4-c4ccc(C)cc4)c4ccccc34)n2)cc(OC)c1` [Example 36, 1-(3-Isopropyl-1-(p-tolyl)-1H-pyrazol-5-yl)-3-(4-((2-((3-methoxy-5-((2-(2-(2-methoxy-ethoxy)ethoxy)ethyl)sulfonyl)phenyl)amino)pyrimidin-4-yl)oxy)naphthalen-1-yl)urea]: the IC50 in the experiment on PBMCs [1] is 2.5 nM; on GSK3α it was 596 nM.

Consider `Cc1ccc(-n2nc(C(C)(C)C)cc2NC(=O)Nc2ccc(Oc3ccnc(Nc4cccc(S(=O)(=O)C5CC5)c4)n3)c3ccccc23)cc1` [Example 46, 1-(3-(tert-Butyl)-1-(p-tolyl)-1H-pyrazol-5-yl)-3-(4-((2-((3-(cyclopropylsulfonyl)phenyl)-amino)pyrimidin-4-yl)oxy)naphthalen-1-yl)urea], for which the IC50 is 2.7 nM with PBMCs [1] and 172 nM against GSK3α.

`COc1cc(Nc2nccc(Oc3ccc(NC(=O)Nc4cc(C(C)(C)C)nn4-c4ccc(C)cc4)c4ccccc34)n2)cc(OCCOCCOCCN2CCOCC2)c1` [Example 58, 1-(3-(tert-Butyl)-1-(p-tolyl)-1H-pyrazol-5-yl)-3-(4-((2-((3-methoxy-5-(2-(2-(2-morpholinoethoxy)ethoxy)ethoxy)phenyl)amino)pyrimidin-4-yl)oxy)naphthalen-1-yl)urea]: the IC50 in the experiment on PBMCs [2] (read-out: IC50 Values for Inhibition of Cytokine Release PBMCs IFNγ) was 1.3 nM; in the experiment on PBMCs [2] (read-out: IC50 Values for Inhibition of Cytokine Release PBMCs IL-2), 39.6 nM.

For the compound `COc1cc(Nc2nccc(Oc3ccc(NC(=O)Nc4cc(C(C)(C)C)nn4-c4ccc(C)cc4)c(Cl)c3Cl)n2)cc(OCCN2CCOCC2)c1` [Example 59, 1-(3-(tert-Butyl)-1-(p-tolyl)-1H-pyrazol-5-yl)-3-(2,3-dichloro-4-((2-((3-methoxy-5-(2-morpholinoethoxy)phenyl)amino)pyrimidin-4-yl)oxy)phenyl)urea], the concentration for half-maximal inhibition (IC50) in the experiment with PBMCs [1] came out at 4.2 nM.

For `COCCOCCOCCN(C)c1cc(Nc2nccc(Oc3ccc(NC(=O)Nc4cc(C(C)(C)C)nn4-c4ccc(C)cc4)c4ccccc34)n2)cc(OC)c1` [Example 67, 1-(3-(tert-Butyl)-1-(p-tolyl)-1H-pyrazol-5-yl)-3-(4-((2-((3-methoxy-5-((2-(2-(2-methoxyethoxy)ethoxy)ethyl)(methyl)amino)phenyl)amino)pyrimidin-4-yl)oxy)naphthalen-1-yl)urea], in the experiment on PBMCs [1], the IC50 stood at 3.5 nM.

`COc1cc(Nc2nccc(Oc3ccc(NC(=O)Nc4cc(C(C)(C)C)nn4-c4ccc(C)cc4)c(Cl)c3Cl)n2)cc(S(=O)(=O)C2CC2)c1` [Example 68, 1-(3-(tert-Butyl)-1-(p-tolyl)-1H-pyrazol-5-yl)-3-(2,3-dichloro-4-((2-((3-(cyclopropylsulfonyl)-5-methoxyphenyl)amino)pyrimidin-4-yl)oxy)phenyl)urea]: the IC50 with PBMCs [1] stood at 5.2 nM.

Usually IC50 stands for the concentration needed to halve the response being measured.
